Measurements reported in PubChem BioAssay AID1918935 (Molecular Pharmacology Branch, DTP, NCI, 2023).

Test system: 324938-238-R-J1-PDC complex spheroid viability
Assay: Anticancer human tumor 324938-238-R-J1-PDC patient-derived bladder carcinoma cell line growth inhibition
Conditions: for IC50: curve of first compound; for viability, T/C: stronger effect = lower value
How it was run: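 Multicellular complex spheroids of tumor cells with human endothelial cells (HUVEC) and mesenchymal stem cells; the LSD1 inhibitor iadademstat was combined with standard-of-care or investigational agents. Top concentration at or near clinical Cmax, half-log dilutions; final DMSO ≤0.25%.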

[1] = second compound 0.1 µM, first compound 0.0316 µM
[2] = second compound 0.1 µM, first compound 0.1 µM
[3] = second compound 0.1 µM, first compound 0.316 µM
[4] = second compound 0.1 µM, first compound 1 µM
[5] = second compound 0.316 µM, first compound 0.0316 µM
[6] = second compound 0.316 µM, first compound 0.1 µM
[7] = second compound 0.316 µM, first compound 0.316 µM
[8] = second compound 0.316 µM, first compound 1 µM
[9] = second compound 1 µM, first compound 0.0316 µM
[10] = second compound 1 µM, first compound 0.1 µM
[11] = second compound 1 µM, first compound 0.316 µM
[12] = second compound 1 µM, first compound 1 µM
[13] = second compound 3.16 µM, first compound 0.0316 µM
[14] = second compound 3.16 µM, first compound 0.1 µM
[15] = second compound 3.16 µM, first compound 0.316 µM
[16] = second compound 3.16 µM, first compound 1 µM
[17] = second compound 10 µM, first compound 0.0316 µM
[18] = second compound 10 µM, first compound 0.1 µM
[19] = second compound 10 µM, first compound 0.316 µM
[20] = second compound 10 µM, first compound 1 µM
[21] = second compound 0.1 µM, first compound 0.00949 µM
[22] = second compound 0.1 µM, first compound 0.03 µM
[23] = second compound 0.1 µM, first compound 0.0949 µM
[24] = second compound 0.1 µM, first compound 0.3 µM
[25] = second compound 0.316 µM, first compound 0.00949 µM
[26] = second compound 0.316 µM, first compound 0.03 µM
[27] = second compound 0.316 µM, first compound 0.0949 µM
[28] = second compound 0.316 µM, first compound 0.3 µM
[29] = second compound 1 µM, first compound 0.00949 µM
[30] = second compound 1 µM, first compound 0.03 µM
[31] = second compound 1 µM, first compound 0.0949 µM
[32] = second compound 1 µM, first compound 0.3 µM
[33] = second compound 3.16 µM, first compound 0.00949 µM
[34] = second compound 3.16 µM, first compound 0.03 µM
[35] = second compound 3.16 µM, first compound 0.0949 µM
[36] = second compound 3.16 µM, first compound 0.3 µM
[37] = second compound 10 µM, first compound 0.00949 µM
[38] = second compound 10 µM, first compound 0.03 µM
[39] = second compound 10 µM, first compound 0.0949 µM
[40] = second compound 10 µM, first compound 0.3 µM
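Further: spheroids also contain HUVEC and human MSCs and agents combined with iadademstat; spheroids exposed to agents for 7 days before readout.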

## CC1COCCN1c1cc(C2(S(C)(=N)=O)CC2)nc(-c2ccnc3[nH]ccc23)n1 (stereo not given) + NC1CC1c1ccc(-c2cccc(O)c2)cc1
Second compound 0.1 µM
  IC50: 507 nM
Second compound 0.316 µM
  IC50: 301 nM
Second compound 1 µM
  IC50: 304 nM
Second compound 3.16 µM
  IC50: 374 nM
Second compound 10 µM
  IC50: 294 nM
[1]
  viability, T/C: 86.1%
[2]
  viability, T/C: 81.3%
[3]
  viability, T/C: 58.3%
[4]
  viability, T/C: 35.9%
Second compound 0.1 µM, first compound 3.16 µM
  viability, T/C: 18%
Second compound 0.1 µM, first compound 10 µM
  viability, T/C: 8.83%
[5]
  viability, T/C: 80.1%
[6]
  viability, T/C: 71%
[7]
  viability, T/C: 46.3%
[8]
  viability, T/C: 30.8%
Second compound 0.316 µM, first compound 3.16 µM
  viability, T/C: 20.5%
Second compound 0.316 µM, first compound 10 µM
  viability, T/C: 8.77%
[9]
  viability, T/C: 74.5%
[10]
  viability, T/C: 65.3%
[11]
  viability, T/C: 47.9%
[12]
  viability, T/C: 34.6%
Second compound 1 µM, first compound 3.16 µM
  viability, T/C: 21.8%
Second compound 1 µM, first compound 10 µM
  viability, T/C: 9.55%
[13]
  viability, T/C: 67.6%
[14]
  viability, T/C: 71.5%
[15]
  viability, T/C: 47.8%
[16]
  viability, T/C: 35.9%
Second compound 3.16 µM, first compound 3.16 µM
  viability, T/C: 22.2%
Second compound 3.16 µM, first compound 10 µM
  viability, T/C: 10.4%
[17]
  viability, T/C: 75%
[18]
  viability, T/C: 66.1%
[19]
  viability, T/C: 45.7%
[20]
  viability, T/C: 36.4%
Second compound 10 µM, first compound 3.16 µM
  viability, T/C: 21.2%
Second compound 10 µM, first compound 10 µM
  viability, T/C: 12.2%

## CCN(c1cc(-c2ccc(CN3CCOCC3)cc2)cc(C(=O)NCc2c(C)cc(C)[nH]c2=O)c1C)C1CCOCC1 + NC1CC1c1ccc(-c2cccc(O)c2)cc1
Second compound 0.1 µM
  IC50: > 3000 nM
Second compound 0.316 µM
  IC50: > 3000 nM
Second compound 1 µM
  IC50: > 3000 nM
Second compound 3.16 µM
  IC50: > 3000 nM
Second compound 10 µM
  IC50: > 3000 nM
[21]
  viability, T/C: 91.3%
[22]
  viability, T/C: 91.9%
[23]
  viability, T/C: 89.8%
[24]
  viability, T/C: 79.1%
Second compound 0.1 µM, first compound 0.949 µM
  viability, T/C: 89%
Second compound 0.1 µM, first compound 3 µM
  viability, T/C: 80.1%
[25]
  viability, T/C: 84.4%
[26]
  viability, T/C: 80.1%
[27]
  viability, T/C: 80.3%
[28]
  viability, T/C: 81.6%
Second compound 0.316 µM, first compound 0.949 µM
  viability, T/C: 85.1%
Second compound 0.316 µM, first compound 3 µM
  viability, T/C: 79.8%
[29]
  viability, T/C: 74.2%
[30]
  viability, T/C: 77.2%
[31]
  viability, T/C: 72.6%
[32]
  viability, T/C: 72.9%
Second compound 1 µM, first compound 0.949 µM
  viability, T/C: 76.9%
Second compound 1 µM, first compound 3 µM
  viability, T/C: 78.6%
[33]
  viability, T/C: 79%
[34]
  viability, T/C: 79.3%
[35]
  viability, T/C: 77.1%
[36]
  viability, T/C: 77.5%
Second compound 3.16 µM, first compound 0.949 µM
  viability, T/C: 76.6%
Second compound 3.16 µM, first compound 3 µM
  viability, T/C: 74.2%
[37]
  viability, T/C: 66.4%
[38]
  viability, T/C: 77%
[39]
  viability, T/C: 66.8%
[40]
  viability, T/C: 62.8%
Second compound 10 µM, first compound 0.949 µM
  viability, T/C: 66.5%
Second compound 10 µM, first compound 3 µM
  viability, T/C: 68.1%

## Nc1ncn(C2CC(O)C(CO)S2)c(=O)n1 (stereo not given) + NC1CC1c1ccc(-c2cccc(O)c2)cc1
Second compound 0.1 µM
  IC50: 16.4 nM
Second compound 0.316 µM
  IC50: 13.3 nM
Second compound 1 µM
  IC50: 8.37 nM
Second compound 3.16 µM
  IC50: 14.4 nM
Second compound 10 µM
  IC50: 9.28 nM
Second compound 0.1 µM, first compound 0.000949 µM
  viability, T/C: 84.5%
Second compound 0.1 µM, first compound 0.003 µM
  viability, T/C: 87.4%
[21]
  viability, T/C: 58.1%
[22]
  viability, T/C: 37.9%
[23]
  viability, T/C: 26.6%
[24]
  viability, T/C: 16.9%
Second compound 0.316 µM, first compound 0.000949 µM
  viability, T/C: 78.1%
Second compound 0.316 µM, first compound 0.003 µM
  viability, T/C: 70.5%
[25]
  viability, T/C: 54%
[26]
  viability, T/C: 36.9%
[27]
  viability, T/C: 29%
[28]
  viability, T/C: 16%
Second compound 1 µM, first compound 0.000949 µM
  viability, T/C: 63.4%
Second compound 1 µM, first compound 0.003 µM
  viability, T/C: 59.2%
[29]
  viability, T/C: 48.4%
[30]
  viability, T/C: 38.1%
[31]
  viability, T/C: 28%
[32]
  viability, T/C: 16.8%
Second compound 3.16 µM, first compound 0.000949 µM
  viability, T/C: 67.2%
Second compound 3.16 µM, first compound 0.003 µM
  viability, T/C: 62%
[33]
  viability, T/C: 55.2%
[34]
  viability, T/C: 41.1%
[35]
  viability, T/C: 32.2%
[36]
  viability, T/C: 17.5%
Second compound 10 µM, first compound 0.000949 µM
  viability, T/C: 62.9%
Second compound 10 µM, first compound 0.003 µM
  viability, T/C: 57.5%
[37]
  viability, T/C: 48.8%
[38]
  viability, T/C: 42.3%
[39]
  viability, T/C: 29.1%
[40]
  viability, T/C: 25%

## O=C(C=Cn1cnc(-c2cc(C(F)(F)F)cc(C(F)(F)F)c2)n1)NNc1cnccn1 + NC1CC1c1ccc(-c2cccc(O)c2)cc1
Second compound 0.1 µM
  IC50: < 3.16 nM
Second compound 0.316 µM
  IC50: < 3.16 nM
Second compound 1 µM
  IC50: < 3.16 nM
Second compound 3.16 µM
  IC50: < 3.16 nM
Second compound 10 µM
  IC50: < 3.16 nM
Second compound 0.1 µM, first compound 0.00316 µM
  viability, T/C: 46%
Second compound 0.1 µM, first compound 0.01 µM
  viability, T/C: 26.3%
[1]
  viability, T/C: 14.1%
[2]
  viability, T/C: 4.16%
[3]
  viability, T/C: 3%
[4]
  viability, T/C: 1.86%
Second compound 0.316 µM, first compound 0.00316 µM
  viability, T/C: 42.2%
Second compound 0.316 µM, first compound 0.01 µM
  viability, T/C: 27%
[5]
  viability, T/C: 14.2%
[6]
  viability, T/C: 5.76%
[7]
  viability, T/C: 2.95%
[8]
  viability, T/C: 1.73%
Second compound 1 µM, first compound 0.00316 µM
  viability, T/C: 36.1%
Second compound 1 µM, first compound 0.01 µM
  viability, T/C: 25.1%
[9]
  viability, T/C: 13.8%
[10]
  viability, T/C: 5.75%
[11]
  viability, T/C: 2.87%
[12]
  viability, T/C: 2.29%
Second compound 3.16 µM, first compound 0.00316 µM
  viability, T/C: 38.3%
Second compound 3.16 µM, first compound 0.01 µM
  viability, T/C: 27.7%
[13]
  viability, T/C: 15.4%
[14]
  viability, T/C: 6%
[15]
  viability, T/C: 2.83%
[16]
  viability, T/C: 2.25%
Second compound 10 µM, first compound 0.00316 µM
  viability, T/C: 42.1%
Second compound 10 µM, first compound 0.01 µM
  viability, T/C: 30.2%
[17]
  viability, T/C: 20.4%
[18]
  viability, T/C: 11.6%
[19]
  viability, T/C: 5.72%
[20]
  viability, T/C: 2.7%
